Measurements published in patent publication US20130123481A1, “MODIFIED NUCLEOSIDES, NUCLEOTIDES, AND NUCLEIC ACIDS, AND USES THEREOF” (MODERNA THERAPEUTICS, priority 2011, published 2013).
Read-outs that look alike come from different tables or passages of the source.

Legend:
rabbit reticulysates = experiment: G-CSF expression in rabbit reticulysates (ELISA); type: biochemical; conditions: 250 ng modified G-CSF mRNA in rabbit reticulysates
Method: (§1) To assess the activity of all our different chemical modifications in the context of a second open reading frame, we replicated experiments previously conducted using luciferase mRNA, with human G-CSF mRNA. […] The mutant T7 polymerase was obtained commercially (Durascribe® T7 Transcription kit (Cat. No. DS010925) (Epicentre®, Madison, Wis.).
(§2) The modified RNA in Tables 45 and 46 were transfected in vitro in HeLa cells or added to rabbit reticulysates (250 ng of modified mRNA) as indicated. […] In Table 45, “NT” means not tested.

HeLa cells [1] = experiment: G-CSF expression in HeLa cells (ELISA); type: cell-based, human; parameters: key to Protein (G-CSF; HeLa): the protein production of HeLa is judged by “+,” “+/−” and “−”; the protein production of HeLa is judged by “+,” “+/−” and “−”; the protein production of HeLa is judged by “+,” “+/−” and “−”; conditions: for G-CSF protein (pg/ml) HeLa cells: fully modified G-CSF mRNA transfected in HeLa cells, ELISA
Method: as §1, §2

[2] = tested on: peripheral blood mononuclear cells (PBMC); experiment: In Vitro Screening in PBMC - G-CSF protein expression; type: cell-based, human; conditions: for G-CSF Protein Expression: 500 ng mRNA; for Protein (G-CSF; PBMC): background about 110 pg/ml
Description: (§3) The supernatant was harvested and stored frozen until analyzed by ELISA to determine the G-CSF protein expression, and the induction of the cytokines interferon-alpha (IFN-α) and tumor necrosis factor alpha (TNF-α).

HeLa cells [3] = experiment: In vitro Screening in HeLa Cells - luciferase (RLU); type: cell-based, human; parameters: key to Protein (Luc; HeLa): the protein production of HeLa is judged by “+,” “+/−” and “−”; the protein production of HeLa is judged by “+,” “+/−” and “−”; the protein production of HeLa is judged by “+,” “+/−” and “−”
Method: The 2′Fluoro-modified mRNA were then transfected into HeLa cells to assess protein production in a cell context and the same mRNA were also assessed in a cell-free rabbit reticulocyte system. A control of unmodified luciferase (natural luciferase) was used for both transcription experiments, a control of untreated and mock transfected (Lipofectamine 2000 alone) were also analyzed for the HeLa transfection and a control of no RNA was analyzed for the rabbit reticulysates.
For the HeLa transfection experiments, the day before transfection, 20,000 HeLa cells (ATCC no. CCL-2; Manassas, Va.) were harvested by treatment with Trypsin-EDTA solution (LifeTechnologies, Grand Island, N.Y.) and seeded in a total volume of 100 ul EMEM medium (supplemented with 10% FCS and 1× Glutamax) per well in a 96-well cell culture plate (Corning, Manassas, Va.). The cells were grown at […] in 5% CO2 atmosphere overnight. […] Lipofectamine 2000 (LifeTechnologies, Grand Island, N.Y.) was used as transfection reagent and 0.2 ul were diluted in 10 ul final volume of OPTI-MEM. After […] of incubation at room temperature, both solutions were combined and incubated an additional 15 minute at room temperature. Then the 20 ul combined solution was added to the 100 ul cell culture medium containing the HeLa cells and incubated at room temperature. After 18 to 22 hours of incubation cells expressing luciferase were lysed with 100 ul of Passive Lysis Buffer (Promega, Madison, Wis.) according to manufacturer instructions. Aliquots of the lysates were transferred to white opaque polystyrene 96-well plates (Corning, Manassas, Va.) and combined with 100 ul complete luciferase assay solution (Promega, Madison, Wis.). The lysate volumes were adjusted or diluted until no more than 2 mio relative light units (RLU) per well were detected for the strongest signal producing samples and the RLUs for each chemistry tested are shown in Table 42. The plate reader was a BioTek Synergy H1 (BioTek, Winooski, Vt.). The background signal of the plates without reagent was about 200 relative light units per well.
To evaluate using of 2′fluoro-modified mRNA in combination with other modification a series of mRNA were transcribed using either wild-type T7 polymerase (non-fluoro-containing compounds) or using mutant T7 polymerases (fluyoro-containing compounds) as described in Example 86. All modified mRNA were tested by in vitro transfection in HeLa cells.
After 18 to 22 hours of incubation cells expressing luciferase were lysed with 100 ul of Passive Lysis Buffer (Promega, Madison, Wis.) according to manufacturer instructions. Aliquots of the lysates were transferred to white opaque polystyrene 96-well plates (Corning, Manassas, Va.) and combined with 100 ul complete luciferase assay solution (Promega, Madison, Wis.). The lysate volumes were adjusted or diluted until no more than 2 mio relative light units (RLU) per well were detected for the strongest signal producing samples and the RLUs for each chemistry tested are shown in Table 44. The plate reader was a BioTek Synergy H1 (BioTek, Winooski, Vt.). The background signal of the plates without reagent was about 200 relative light units per well.

wild-type T7 polymerase = wild-type T7 polymerase (Escherichia phage T7, UniProt P00573); experiment: In Vitro Transcription with Wild-Type T7 Polymerase (transcription and capping yield); conditions: for IVT (G-CSF), first result / IVT (Luc), first result: Table 48 non-naturally occurring; for IVT (G-CSF), first result / IVT (G-CSF): G-CSF mRNA in vitro transcription; for IVT (G-CSF), first result / IVT (Luc), first result / IVT (G-CSF) / IVT (Luc): Pass/Fail; for IVT (Luc), first result / IVT (Luc): luciferase mRNA in vitro transcription; for IVT (G-CSF) / IVT (Luc): Table 47 naturally occurring
Chain of wild-type T7 polymerase (P00573 whole entry): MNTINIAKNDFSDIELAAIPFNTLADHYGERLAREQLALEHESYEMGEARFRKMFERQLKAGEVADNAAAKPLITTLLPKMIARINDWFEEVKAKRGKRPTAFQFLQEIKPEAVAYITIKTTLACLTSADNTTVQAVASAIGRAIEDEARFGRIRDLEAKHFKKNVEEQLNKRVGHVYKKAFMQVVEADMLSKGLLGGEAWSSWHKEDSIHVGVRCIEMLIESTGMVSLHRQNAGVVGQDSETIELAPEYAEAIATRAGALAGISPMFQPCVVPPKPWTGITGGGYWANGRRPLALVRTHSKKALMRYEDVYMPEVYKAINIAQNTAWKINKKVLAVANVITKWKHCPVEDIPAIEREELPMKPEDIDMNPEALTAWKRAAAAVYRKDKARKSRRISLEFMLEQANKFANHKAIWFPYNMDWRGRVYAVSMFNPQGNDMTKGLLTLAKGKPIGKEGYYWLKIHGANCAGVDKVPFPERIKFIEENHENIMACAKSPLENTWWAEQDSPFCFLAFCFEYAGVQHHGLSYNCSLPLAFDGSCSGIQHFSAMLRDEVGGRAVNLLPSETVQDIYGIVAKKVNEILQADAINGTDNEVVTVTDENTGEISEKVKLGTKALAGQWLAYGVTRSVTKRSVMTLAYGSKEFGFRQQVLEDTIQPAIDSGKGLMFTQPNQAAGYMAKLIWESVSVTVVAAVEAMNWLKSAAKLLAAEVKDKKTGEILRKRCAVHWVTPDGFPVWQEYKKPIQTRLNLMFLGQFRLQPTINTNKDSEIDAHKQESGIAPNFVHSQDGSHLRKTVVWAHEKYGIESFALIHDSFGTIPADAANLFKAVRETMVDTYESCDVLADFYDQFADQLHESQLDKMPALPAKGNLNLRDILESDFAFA
Method: The luciferase and G-CSF modified mRNA were also subjected to an enzymatic capping reaction and each modified mRNA capping reaction was evaluated for yield by spectrophometic measurement (OD260) and correct size assessed using bioanalyzer.

[4] = tested on: peripheral blood mononuclear cells (PBMC), interferon-alpha (IFN-α); type: cell-based, human; conditions: IFN-alpha, background about 70 pg/ml
Description: as §3

[5] = PBMC Donor 1, 0.4 uL Lipofectamine 2000
[6] = Table 48 non-naturally occurring, ** mutant T7 polymerase
[7] = Table 48 non-naturally occurring
[8] = Table 47 naturally occurring, *** = production seen in cell free translations

Molecule: O=c1ccn([C@@H]2O[C@H](CO)[C@@H](O)[C@H]2O)c(=S)[nH]1 [2-thiouridine]
- G-CSF protein (pg/ml) Rabbit reticulysates cells (rabbit reticulysates): 18,375 pg/ml
- G-CSF protein (pg/ml) HeLa cells (HeLa cells [1]): 417,273 pg/ml
- G-CSF Protein Expression [2, 5]: 932 pg/mL
- G-CSF Protein Expression ([2]; PBMC Donor 2): 1,000 pg/ml
- G-CSF Protein Expression ([2]; PBMC Donor 3): 600 pg/mL

Molecule: 5-Br-Uridine [Compound 5-Br-Uridine]
- Protein (Luc; HeLa) (HeLa cells [3]; [6]): +
- IVT (G-CSF), first result (wild-type T7 polymerase): Pass
- IVT (Luc), first result (wild-type T7 polymerase): Pass
- Cytokines (G-CSF; PBMC) [4, 7]: + (“+” means greater than 100 pg/ml IFN-alpha)
- Protein (G-CSF; HeLa) (HeLa cells [1]; [7]): +
- Protein (G-CSF; PBMC) [2, 7]: + (“+” means greater than 300 pg/ml G-CSF)

Molecule: Cn1cc([C@@H]2O[C@H](CO)[C@@H](O)[C@H]2O)c(=O)[nH]c1=O [1-methylpseudouridine (m^1Y)]
- Protein (Luc; HeLa) (HeLa cells [3]; [8]): +
- IVT (G-CSF) (wild-type T7 polymerase): Pass
- IVT (Luc) (wild-type T7 polymerase): Pass
- Cytokines (G-CSF; PBMC) ([4]; Table 47 naturally occurring): − (“−” means less than 100 pg/ml)
- Protein (G-CSF; PBMC) ([2]; Table 47 naturally occurring): ++++ (“++++” means greater than 6,000 pg/ml G-CSF)

Molecule: Nc1cnn([C@@H]2O[C@H](CO)[C@@H](O)[C@H]2O)c(=O)n1 [Compound 6-Aza-cytidine, 6-Aza-cytidine]
- IVT (G-CSF), first result (wild-type T7 polymerase): Fail
- IVT (Luc), first result (wild-type T7 polymerase): Fail

Molecule: O=c1[nH]c(=S)ccn1[C@@H]1O[C@H](CO)[C@@H](O)[C@H]1O [4-thiouridine]
- G-CSF protein (pg/ml) Rabbit reticulysates cells (rabbit reticulysates): 52,375 pg/ml
- G-CSF protein (pg/ml) HeLa cells (HeLa cells [1]): 107,273 pg/ml
- G-CSF Protein Expression [2, 5]: 5 pg/mL
- G-CSF Protein Expression ([2]; PBMC Donor 2): 391 pg/mL
- G-CSF Protein Expression ([2]; PBMC Donor 3): 218 pg/mL

Molecule: Nc1nc(=O)n([C@@H]2O[C@H](CO)[C@@H](O)[C@H]2O)cc1C=O [Compound 5-formyl-cytidine, 5-formyl-cytidine]
- G-CSF protein (pg/ml) Rabbit reticulysates cells (rabbit reticulysates): 24,000 pg/ml
- G-CSF protein (pg/ml) HeLa cells (HeLa cells [1]): 0 pg/mL

Molecule: COC(=O)C=Cc1cn([C@@H]2O[C@H](CO)[C@@H](O)[C@H]2O)c(=O)[nH]c1=O [5-(2-carbomethoxyvinyl) Uridine]
- Protein (Luc; HeLa) (HeLa cells [3]; [6]): −
- IVT (G-CSF), first result (wild-type T7 polymerase): Pass
- IVT (Luc), first result (wild-type T7 polymerase): Pass
- Cytokines (G-CSF; PBMC) [4, 7]: − (“−” means less than 100 pg/ml)
- Protein (G-CSF; HeLa) (HeLa cells [1]; [7]): −
- Protein (G-CSF; PBMC) [2, 7]: +/− (“+/−” means 150-300 pg/ml G-CSF)

Molecule: O=c1[nH]c(=S)ccn1[C@@H]1O[C@H](CO)[C@@H](O)[C@H]1O [4-thiouridine (s^4U)]
- IVT (G-CSF) (wild-type T7 polymerase): Pass
- IVT (Luc) (wild-type T7 polymerase): Fail
- Cytokines (G-CSF; PBMC) ([4]; Table 47 naturally occurring): ++ (“++” means greater than 300 pg/ml IFN-alpha)
- Protein (G-CSF; HeLa) (HeLa cells [1]; [8]): +
- Protein (G-CSF; PBMC) ([2]; Table 47 naturally occurring): +/− (“+/−” means 150-300 pg/ml G-CSF)

Molecule: N-1-methyladenosine [Compound N-1-methyladenosine]
- In vitro transcription Yield (wild-type T7 polymerase; G-CSF mRNA, wild-type T7 polymerase, OD260): 0.63 mg

Molecule: Luciferase control
- G-CSF protein (pg/ml) Rabbit reticulysates cells (rabbit reticulysates): 0 pg/mL

Molecule: CNc1ncnc2c1ncn2[C@@H]1O[C@H](CO)[C@@H](O)[C@H]1O [Compound N6-methyl-adenosine, N6-methyl-adenosine]
- G-CSF protein (pg/ml) Rabbit reticulysates cells (rabbit reticulysates): 0 pg/mL
- G-CSF protein (pg/ml) HeLa cells (HeLa cells [1]): 1,591 pg/ml
